Source: ChEMBL document CHEMBL3526097, “Preclinical disposition of GDC-0973 and prospective and retrospective analysis of human dose and efficacy predictions” (Drug Metab Dispos, 2012)

Legend:
[1] = Ratio of drug level in blood to plasma in Sprague-Dawley rat at 10 uM after 30 mins; format: ADME
Albumin [2] = target: T1, Albumin (Homo sapiens, UniProt P02768); assay: Percentage unbound in human serum albumin at 5 uM after 5 hrs by equilibrium dialysis; format: ADME
[3] = Percentage unbound in human alpha-1-acid glycoprotein at 1 uM after 5 hrs by equilibrium dialysis; format: ADME
[4] = Ratio of drug level in blood to plasma in beagle dog at 5 uM after 30 mins; format: ADME, Canis lupus familiaris
[5] = Drug uptake in Long-Evans rat lacrimal gland at 30 mg/kg, po after 2 hrs by autoradiography; format: ADME, organism-based, Lachrymal gland; design: dose 30 mg/kg, route oral; details: in vivo
Adrenal gland = assay: Drug uptake in Long-Evans rat adrenal gland at 30 mg/kg, po after 2 hrs by autoradiography; format: ADME, organism-based; design: dose 30 mg/kg, route oral; details: in vivo
[6] = Drug excretion in bile duct-intact Beagle dog urine at 30 mg/kg, po after 72 hrs by liquid scintillation counting; format: ADME, organism-based, Canis lupus familiaris; design: dose 30 mg/kg, route oral; details: in vivo
[7] = Percentage unbound in mouse plasma at 1 uM after 5 hrs by equilibrium dialysis; format: ADME, cell-free
Albumin [8] = target: T1, Albumin; assay: Percentage unbound in human serum albumin at 1 uM after 5 hrs by equilibrium dialysis; format: ADME
[9] = Percentage unbound in mouse plasma at 10 uM after 5 hrs by equilibrium dialysis; format: ADME, cell-free
[10] = Ratio of drug level in blood to plasma in beagle dog at 1 uM after 30 mins; format: ADME, Canis lupus familiaris
[11] = Ratio of drug level in blood to plasma in human at 5 uM after 30 mins; format: ADME
[12] = Percentage unbound in human plasma at 5 uM after 5 hrs by equilibrium dialysis; format: ADME, cell-free
[13] = Percentage unbound in dog plasma at 5 uM after 5 hrs by equilibrium dialysis; format: ADME, cell-free, Canis lupus familiaris
[14] = Ratio of drug level in blood to plasma in human at 1 uM after 30 mins; format: ADME
[15] = Percentage unbound in rat plasma at 10 uM after 5 hrs by equilibrium dialysis; format: ADME, cell-free
[16] = Percentage unbound in rat plasma at 5 uM after 5 hrs by equilibrium dialysis; format: ADME, cell-free
[17] = Percentage unbound in dog plasma at 1 uM after 5 hrs by equilibrium dialysis; format: ADME, cell-free, Canis lupus familiaris
Kidney = assay: Drug uptake in Long-Evans rat kidney at 30 mg/kg, po after 72 hrs by autoradiography; format: ADME, organism-based; design: dose 30 mg/kg, route oral; details: in vivo
Liver [18] = assay: Drug uptake in Long-Evans rat liver at 30 mg/kg, po after 72 hrs by autoradiography; format: ADME, organism-based; design: dose 30 mg/kg, route oral; details: in vivo
[19] = Ratio of drug level in blood to plasma in Sprague-Dawley rat at 5 uM after 30 mins; format: ADME
[20] = Ratio of drug level in blood to plasma in cynomolgus monkey at 5 uM after 30 mins; format: ADME, Macaca fascicularis
[21] = Drug uptake in Long-Evans rat melanin containing tissue at 30 mg/kg, po after 72 hrs by autoradiography; format: ADME, organism-based; design: dose 30 mg/kg, route oral; details: in vivo
[22] = Percentage unbound in rat plasma at 1 uM after 5 hrs by equilibrium dialysis; format: ADME, cell-free
[23] = Percentage unbound in cynomolgus monkey plasma at 5 uM after 5 hrs by equilibrium dialysis; format: ADME, cell-free, Macaca fascicularis
[24] = Ratio of drug level in blood to plasma in Sprague-Dawley rat at 1 uM after 30 mins; format: ADME
[25] = Ratio of drug level in blood to plasma in human at 10 uM after 30 mins; format: ADME
[26] = Percentage unbound in cynomolgus monkey plasma at 1 uM after 5 hrs by equilibrium dialysis; format: ADME, cell-free, Macaca fascicularis
[27] = Drug excretion in bile duct-intact Beagle dog feces at 30 mg/kg, po after 72 hrs by liquid scintillation counting; format: ADME, organism-based, Canis lupus familiaris; design: dose 30 mg/kg, route oral; details: in vivo
[28] = Percentage unbound in human alpha-1-acid glycoprotein at 5 uM after 5 hrs by equilibrium dialysis; format: ADME
[29] = Percentage unbound in cynomolgus monkey plasma at 10 uM after 5 hrs by equilibrium dialysis; format: ADME, cell-free, Macaca fascicularis
[30] = Drug excretion in bile duct-cannulated Sprague-Dawley rat bile at 30 mg/kg, po after 48 hrs by liquid scintillation counting; format: ADME, organism-based; design: dose 30 mg/kg, route oral; details: in vivo
Cerebrum = assay: Drug uptake in Long-Evans rat cerebrum at 30 mg/kg, po after 4 hrs by autoradiography; format: ADME, organism-based; design: dose 30 mg/kg, route oral; details: in vivo
Liver [31] = assay: Drug uptake in Long-Evans rat liver at 30 mg/kg, po after 2 hrs by autoradiography; format: ADME, organism-based; design: dose 30 mg/kg, route oral; details: in vivo
[32] = Drug excretion in bile duct-intact Sprague-Dawley rat feces at 30 mg/kg, po after 48 hrs by liquid scintillation counting; format: ADME, organism-based; design: dose 30 mg/kg, route oral; details: in vivo
[33] = Percentage unbound in human plasma at 10 uM after 5 hrs by equilibrium dialysis; format: ADME, cell-free
[34] = Percentage unbound in human alpha-1-acid glycoprotein at 10 uM after 5 hrs by equilibrium dialysis; format: ADME
[35] = Ratio of drug level in blood to plasma in beagle dog at 10 uM after 30 mins; format: ADME, Canis lupus familiaris
[36] = Percentage unbound in human plasma at 1 uM after 5 hrs by equilibrium dialysis; format: ADME, cell-free
[37] = Percentage unbound in dog plasma at 10 uM after 5 hrs by equilibrium dialysis; format: ADME, cell-free, Canis lupus familiaris
[38] = Ratio of drug level in blood to plasma in cynomolgus monkey at 10 uM after 30 mins; format: ADME, Macaca fascicularis
[39] = Drug excretion in bile duct-intact Sprague-Dawley rat urine at 30 mg/kg, po after 48 hrs by liquid scintillation counting; format: ADME, organism-based; design: dose 30 mg/kg, route oral; details: in vivo
[40] = Drug excretion in bile duct-cannulated Beagle dog bile at 30 mg/kg, po after 168 hrs by liquid scintillation counting; format: ADME, organism-based, Canis lupus familiaris; design: dose 30 mg/kg, route oral; details: in vivo
Albumin [41] = target: T1, Albumin; assay: Percentage unbound in human serum albumin at 10 uM after 5 hrs by equilibrium dialysis; format: ADME
Intestine = assay: Drug uptake in Long-Evans rat intestine at 30 mg/kg, po after 72 hrs by autoradiography; format: ADME, organism-based; design: dose 30 mg/kg, route oral; details: in vivo
[42] = Ratio of drug level in blood to plasma in CD1 mouse at 5 uM after 30 mins; format: ADME
[43] = Ratio of drug level in blood to plasma in cynomolgus monkey at 1 uM after 30 mins; format: ADME, Macaca fascicularis
[44] = Percentage unbound in mouse plasma at 5 uM after 5 hrs by equilibrium dialysis; format: ADME, cell-free
Lung = assay: Drug uptake in Long-Evans rat lung at 30 mg/kg, po after 2 hrs by autoradiography; format: ADME, organism-based; design: dose 30 mg/kg, route oral; details: in vivo
[45] = Ratio of drug level in blood to plasma in CD1 mouse at 10 uM after 30 mins; format: ADME
[46] = Ratio of drug level in blood to plasma in CD1 mouse at 1 uM after 30 mins; format: ADME
Large intestine = assay: Drug uptake in Long-Evans rat large intestine at 30 mg/kg, po after 2 hrs by autoradiography; format: ADME, organism-based; design: dose 30 mg/kg, route oral; details: in vivo

T1 sequence (P02768 whole entry): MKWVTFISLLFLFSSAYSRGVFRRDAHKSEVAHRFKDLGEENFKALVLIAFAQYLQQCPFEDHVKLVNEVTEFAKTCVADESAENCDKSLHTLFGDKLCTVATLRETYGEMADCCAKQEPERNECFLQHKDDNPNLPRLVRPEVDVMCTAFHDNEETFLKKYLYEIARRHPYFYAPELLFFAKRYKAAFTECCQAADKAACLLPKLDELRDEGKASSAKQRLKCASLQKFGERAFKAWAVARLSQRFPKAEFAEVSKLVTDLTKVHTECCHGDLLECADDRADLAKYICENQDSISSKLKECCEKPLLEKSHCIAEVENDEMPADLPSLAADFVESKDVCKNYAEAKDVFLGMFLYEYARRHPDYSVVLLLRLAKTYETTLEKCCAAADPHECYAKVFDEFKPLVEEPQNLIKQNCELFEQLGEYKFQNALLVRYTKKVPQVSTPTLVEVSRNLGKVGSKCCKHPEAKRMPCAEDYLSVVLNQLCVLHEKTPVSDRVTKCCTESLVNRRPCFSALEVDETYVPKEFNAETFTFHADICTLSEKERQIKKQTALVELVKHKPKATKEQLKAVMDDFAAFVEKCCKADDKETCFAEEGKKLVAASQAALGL

O=C(c1ccc(F)c(F)c1N[14c]1[14cH][14cH][14c](I)[14cH][14c]1F)N1CC(O)([C@@H]2CCCCN2)C1
blood plasma ratio at 0.5 h, 10 µM [1]: 1.51
fraction unbound at 5 h, 5 µM (Albumin [2]): 0.408
fraction unbound at 5 h, 1 µM [3]: 0.044
blood plasma ratio at 0.5 h, 5 µM [4]: 0.752
Drug uptake [5]: Active
Drug uptake (Adrenal gland): Active
Drug excretion [6]: 6.3%
fraction unbound at 5 h, 1 µM [7]: 0.041
fraction unbound at 5 h, 1 µM (Albumin [8]): 0.469
fraction unbound at 5 h, 10 µM [9]: 0.033
blood plasma ratio at 0.5 h, 1 µM [10]: 0.632
blood plasma ratio at 0.5 h, 5 µM [11]: 0.945
fraction unbound at 5 h, 5 µM [12]: 0.065
fraction unbound at 5 h, 5 µM [13]: 0.012
blood plasma ratio at 0.5 h, 1 µM [14]: 0.933
fraction unbound at 5 h, 10 µM [15]: 0.037
fraction unbound at 5 h, 5 µM [16]: 0.035
fraction unbound at 5 h, 1 µM [17]: 0.007
Drug uptake (Kidney): Active
Drug uptake (Liver [18]): Active
blood plasma ratio at 0.5 h, 5 µM [19]: 1.37
blood plasma ratio at 0.5 h, 5 µM [20]: 1.64
Drug uptake [21]: Active
fraction unbound at 5 h, 1 µM [22]: 0.028
fraction unbound at 5 h, 5 µM [23]: 0.044
blood plasma ratio at 0.5 h, 1 µM [24]: 1.36
blood plasma ratio at 0.5 h, 10 µM [25]: 1.05
fraction unbound at 5 h, 1 µM [26]: 0.045
Drug excretion [27]: 80%
fraction unbound at 5 h, 5 µM [28]: 0.042
fraction unbound at 5 h, 10 µM [29]: 0.048
Drug excretion [30]: 74%
Drug uptake (Cerebrum): Active
Drug uptake (Liver [31]): Active
Drug excretion [32]: 85%
fraction unbound at 5 h, 10 µM [33]: 0.058
fraction unbound at 5 h, 10 µM [34]: 0.053
blood plasma ratio at 0.5 h, 10 µM [35]: 0.936
fraction unbound at 5 h, 1 µM [36]: 0.052
fraction unbound at 5 h, 10 µM [37]: 0.014
blood plasma ratio at 0.5 h, 10 µM [38]: 1.82
Drug excretion [39]: 2.2%
Drug excretion [40]: 65%
fraction unbound at 5 h, 10 µM (Albumin [41]): 0.408
Drug uptake (Intestine): Active
blood plasma ratio at 0.5 h, 5 µM [42]: 1.19
blood plasma ratio at 0.5 h, 1 µM [43]: 1.57
fraction unbound at 5 h, 5 µM [44]: 0.034
Drug uptake (Lung): Active
blood plasma ratio at 0.5 h, 10 µM [45]: 1.27
blood plasma ratio at 0.5 h, 1 µM [46]: 1.16
Drug uptake (Large intestine): Active
